Measurements reported in publication PMC7556876, “POMK regulates dystroglycan function via LARGE1-mediated elongation of matriglycan” (eLife, 2020).

Target: T1, POMK (Protein O-Mannose Kinase) (Danio rerio, UniProt Q5U3W1)
T1 construct: Purified Danio rerio POMK
Assay: ligand-observed 1D 1H NMR titration (Man H1 peak intensity)
Assay type: binding

T1 sequence (Q5U3W1 whole entry): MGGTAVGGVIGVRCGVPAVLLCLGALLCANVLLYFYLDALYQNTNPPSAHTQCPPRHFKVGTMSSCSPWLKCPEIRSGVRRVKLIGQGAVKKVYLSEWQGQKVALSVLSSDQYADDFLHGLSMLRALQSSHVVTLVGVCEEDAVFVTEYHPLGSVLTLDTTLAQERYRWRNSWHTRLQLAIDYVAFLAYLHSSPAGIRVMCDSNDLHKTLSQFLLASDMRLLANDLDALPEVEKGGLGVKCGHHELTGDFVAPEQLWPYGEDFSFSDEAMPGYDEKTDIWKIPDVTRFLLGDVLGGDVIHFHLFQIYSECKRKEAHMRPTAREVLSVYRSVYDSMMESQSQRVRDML

Molecule CC(=O)N[C@H]1[C@H](O[C@H]2[C@H](O)[C@@H](CO)O[C@@H](O[C@H]3[C@H](O)[C@H](O)[C@@H](Oc4ccc5c(C)cc(=O)oc5c4)O[C@@H]3COP(=O)(O)O)[C@@H]2NC(C)=O)O[C@H](CO)[C@H](O)[C@@H]1O [GGMp-MU] has a Kd greater than 500 µM.
